Data as given in patent US20130152233A1, “5-FLUOROCYTOSINE AS A SEED TREATMENT AGENT TO CONTROL PLANT DISEASE” (Dow AgroSciences LLC, priority 2011, published 2013).

Test system: Mycosphaerella graminicola; anamorph: Septoria tritici; Bayer code SEPTTR
Test: Fungicidal activity as a seed treatment for leaf blotch of wheat (SEPTTR), treated 'Yuma' wheat seeds
Format: in vivo
Protocol: Evaluation of Fungicidal Activity as a Seed Treatment for Leaf Blotch of Wheat (Mycosphaerella graminicola; anamorph: Septoria tritici; Bayer code […]) Seeds of wheat variety 'Yuma' were treated with a 1% weight-to-volume (w/v) solution of 5-fluorocytosine in water at rates of 16.5, 5.5, 1.8, and 0 grams of active ingredient per 100 kilograms (g ai/100 kg) of seeds. A red dye and a polymer blend were included in the formulation as inert ingredients. Seeds were allowed to dry thoroughly and were sown 3 days (trial 1) or 5 weeks (trials 2 and 3) after treatment. Seeds (10-12 seeds/pot) were planted in 4 square inch pots containing 50% mineral soil/50% soil-less Metro mix. Eleven-day-old seedlings were inoculated with an aqueous spore suspension of Septoria tritici, and 6-10 pots of plants were inoculated for each fungicide rate. After inoculation, plants were kept in 100% relative humidity three days to allow establishment of infection. The plants were then transferred to a greenhouse until disease developed. When disease on untreated plants was fully expressed , disease severities on treated plants were assessed. […] Trial 1 was the average of 10 pots of plants; Trial 2 was the average of 6 pots of plants; and Trial 3 was the average of 6 pots of plants placed in weigh boats in order to prevent possible loss of the 5-fluorocytosine from soil leaching. The following tables include data showing the activity of 5-fluorocytosine when evaluated in these experiments. The effectiveness of 5-fluorocytosine in controlling disease was determined by assessing the severity of disease on treated plants, then converting the severity to percent control based on the level of disease on untreated, inoculated plants.

Nc1nc(=O)[nH]cc1F [5-fluorocytosine] was tested, and the “% Disease control (SEPTTR)” value (Trial 1, 1.8 g ai/100 kg seeds, sown 3 days after treatment, average of 10 pots) was “D (1-25)”, the “% Disease control (SEPTTR)” value (Trial 1, 5.5 g ai/100 kg seeds, sown 3 days after treatment, average of 10 pots) was “C (26-50)” and the “% Disease control (SEPTTR)” value (Trial 1, 16.5 g ai/100 kg seeds, sown 3 days after treatment, average of 10 pots) was “A (76-100)”. The “% Disease control (SEPTTR)” value (Trial 2, 1.8 g ai/100 kg seeds, sown 5 weeks after treatment, average of 6 pots) was “C (26-50)”, the “% Disease control (SEPTTR)” value (Trial 2, 5.5 g ai/100 kg seeds, sown 5 weeks after treatment, average of 6 pots) was “A (76-100)” and the “% Disease control (SEPTTR)” value (Trial 2, 16.5 g ai/100 kg seeds, sown 5 weeks after treatment, average of 6 pots) was “A (76-100)”. The “% Disease control (SEPTTR)” value (Trial 3, 1.8 g ai/100 kg seeds, sown 5 weeks after treatment, 6 pots in weigh boats) was “C (26-50)”, the “% Disease control (SEPTTR)” value (Trial 3, 5.5 g ai/100 kg seeds, sown 5 weeks after treatment, 6 pots in weigh boats) was “A (76-100)” and the “% Disease control (SEPTTR)” value (Trial 3, 16.5 g ai/100 kg seeds, sown 5 weeks after treatment, 6 pots in weigh boats) was “A (76-100)”. For the same compound, the “control of SEPTTR (in words)” value (test rate of 16.5 g ai/100 kg seeds) was “significant level of control”.
